In US10246453B2, “Benzenesulfonamide compounds and their use as therapeutic agents” (Xenon Pharmaceuticals Inc., priority 2016, dated 2019):
Counter-ions that a name gives are not always drawn.

Columns and labels:
NaV1.6 = NaV1.6 (Homo sapiens (Human), UniProt Q9UQD0); assay: Sodium Influx Assay (Flux), NaV1.6; conditions: read-out: Flux NaV1.6 IC50; Trex HEK293 cells, ANG2 dye; arithmetic mean
NaV1.1 = NaV1.1 (Homo sapiens (Human), UniProt P35498); assay: Sodium Influx Assay (Flux), NaV1.1; assay type: cell-based; conditions: Trex HEK293 cells, ANG2 dye; arithmetic mean
NaV1.5 = NaV1.5 (Homo sapiens (Human), UniProt Q14524); assay: Sodium Influx Assay (Flux), NaV1.5; conditions: read-out: Flux NaV1.5 IC50; Trex HEK293 cells, ANG2 dye; arithmetic mean
Sequence of NaV1.5 (Q14524 other isoform, or with tags, fused parts or gaps): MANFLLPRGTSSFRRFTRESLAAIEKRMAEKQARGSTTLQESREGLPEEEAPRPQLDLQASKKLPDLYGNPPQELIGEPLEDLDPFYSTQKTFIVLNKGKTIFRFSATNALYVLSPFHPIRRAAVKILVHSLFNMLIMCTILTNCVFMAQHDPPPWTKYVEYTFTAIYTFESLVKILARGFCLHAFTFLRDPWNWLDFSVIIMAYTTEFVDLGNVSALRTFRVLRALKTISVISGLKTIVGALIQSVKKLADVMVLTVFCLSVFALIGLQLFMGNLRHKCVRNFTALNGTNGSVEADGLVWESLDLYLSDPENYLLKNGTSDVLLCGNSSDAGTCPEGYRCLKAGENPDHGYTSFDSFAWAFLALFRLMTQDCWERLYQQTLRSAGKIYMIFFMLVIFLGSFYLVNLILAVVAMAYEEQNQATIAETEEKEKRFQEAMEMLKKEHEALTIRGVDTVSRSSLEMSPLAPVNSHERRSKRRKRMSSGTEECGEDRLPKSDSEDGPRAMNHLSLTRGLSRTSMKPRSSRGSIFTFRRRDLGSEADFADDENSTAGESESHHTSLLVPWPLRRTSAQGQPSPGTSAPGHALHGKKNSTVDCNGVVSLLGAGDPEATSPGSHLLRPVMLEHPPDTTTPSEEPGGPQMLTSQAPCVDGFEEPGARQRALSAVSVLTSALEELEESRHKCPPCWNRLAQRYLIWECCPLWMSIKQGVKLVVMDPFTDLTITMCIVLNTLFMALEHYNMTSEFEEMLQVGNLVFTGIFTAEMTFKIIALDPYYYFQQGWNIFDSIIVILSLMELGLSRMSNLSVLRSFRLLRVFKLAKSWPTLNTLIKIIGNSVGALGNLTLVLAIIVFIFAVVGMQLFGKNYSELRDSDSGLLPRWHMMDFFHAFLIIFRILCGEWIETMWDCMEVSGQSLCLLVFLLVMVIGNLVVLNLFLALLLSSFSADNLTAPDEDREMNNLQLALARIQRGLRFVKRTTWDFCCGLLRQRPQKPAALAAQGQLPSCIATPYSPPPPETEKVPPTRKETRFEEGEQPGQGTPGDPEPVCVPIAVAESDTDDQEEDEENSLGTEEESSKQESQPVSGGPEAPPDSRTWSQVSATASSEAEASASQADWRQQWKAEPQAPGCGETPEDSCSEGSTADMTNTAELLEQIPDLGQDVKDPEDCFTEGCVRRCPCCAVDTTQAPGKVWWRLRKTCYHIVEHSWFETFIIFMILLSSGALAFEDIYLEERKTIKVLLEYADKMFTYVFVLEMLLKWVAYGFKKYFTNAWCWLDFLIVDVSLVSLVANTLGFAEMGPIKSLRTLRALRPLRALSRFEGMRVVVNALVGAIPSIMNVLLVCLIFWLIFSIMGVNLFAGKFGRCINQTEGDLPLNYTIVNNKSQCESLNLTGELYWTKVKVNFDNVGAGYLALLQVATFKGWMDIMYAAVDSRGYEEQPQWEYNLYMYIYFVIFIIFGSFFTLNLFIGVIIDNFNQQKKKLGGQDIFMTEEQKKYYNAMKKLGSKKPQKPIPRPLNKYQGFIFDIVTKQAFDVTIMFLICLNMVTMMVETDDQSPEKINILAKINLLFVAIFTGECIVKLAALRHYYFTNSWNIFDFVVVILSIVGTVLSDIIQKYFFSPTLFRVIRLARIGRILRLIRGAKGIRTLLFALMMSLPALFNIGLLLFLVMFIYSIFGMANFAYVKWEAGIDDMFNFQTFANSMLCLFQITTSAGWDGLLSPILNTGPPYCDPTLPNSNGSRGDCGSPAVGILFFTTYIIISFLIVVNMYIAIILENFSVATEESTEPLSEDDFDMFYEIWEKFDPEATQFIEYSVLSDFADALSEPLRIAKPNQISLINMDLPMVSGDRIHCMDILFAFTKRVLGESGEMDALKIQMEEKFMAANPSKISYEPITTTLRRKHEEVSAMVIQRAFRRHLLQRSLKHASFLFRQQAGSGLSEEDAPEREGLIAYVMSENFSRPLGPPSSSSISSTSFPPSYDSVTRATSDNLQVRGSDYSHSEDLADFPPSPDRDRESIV

SMILES | IC50 (NaV1.6) [µM] | IC50 (NaV1.1) [µM] | IC50 (NaV1.5) [µM]
Cc1c(N(C)[C@H]2CCN(Cc3cccc(C(F)(F)F)n3)C2)cc(F)c(S(=O)(=O)Nc2cscn2)c1F [Example 224, (S)-2,6-difluoro-3-methyl-4-(methyl(1-((6-(trifluoromethyl)pyridin-2-yl)methyl)pyrrolidin-3-yl)amino)-N-(thiazol-4-yl)benzenesulfonamide 2,2,2-trifluoroacetate] | 0.024 | 8.89 | > 30
C[C@H](c1ccccc1)N1CCC(Oc2cc(F)c(S(=O)(=O)Nc3nccs3)cc2Cl)CC1 [Example 56, (R)-5-chloro-2-fluoro-4-((1-(1-phenylethyl)piperidin-4-yl)oxy)-N-(thiazol-2-yl)benzenesulfonamide 2,2,2-trifluoroacetate] | 0.392 | 12.5 | 10.1
Cc1cc(S(=O)(=O)Nc2cscn2)c(F)cc1N(C)[C@H]1CCN(Cc2cocn2)C1 [Example 143, (S)-2-fluoro-5-methyl-4-(methyl(1-(oxazol-4-ylmethyl)pyrrolidin-3-yl)amino)-N-(thiazol-4-yl)benzenesulfonamide] | 10.2 | > 30 | > 30
Cc1cc(S(=O)(=O)Nc2cscn2)c(F)cc1N[C@@H]1CCN(Cc2ccccc2)C1 [Example 271, (R)-4-((1-benzylpyrrolidin-3-yl)amino)-2-fluoro-5-methyl-N-(thiazol-4-yl)benzenesulfonamide formate] | 4.09 | 8.7 | 8.18
CN(c1cc(F)c(S(=O)(=O)Nc2cscn2)cc1Cl)[C@H]1CCN(CCC(C)(C)C)C1 [Example 175, (S)-5-chloro-4-((1-(3,3-dimethylbutyl)-pyrrolidin-3-yl)(methyl)amino)-2-fluoro-N-(thiazol-4-yl)benzene-sulfonamide 2,2,2-trifluoroacetate] | 2.55 | 13.2 | > 30
Cc1c(N(C)[C@H]2CCN(Cc3cccc(F)c3F)C2)cc(F)c(S(=O)(=O)Nc2cscn2)c1F [Example 237, (S)-4-((1-(2,3-difluorobenzyl)pyrrolidin-3-yl)(methyl)amino)-2,6-difluoro-3-methyl-N-(thiazol-4-yl)benzenesulfonamide formate] | 0.064 | 8.52 | 14.7
O=S(=O)(Nc1cccc(F)n1)c1cc(Cl)c(OC2CCN(Cc3ccccc3)CC2)cc1F [Example 78, 4-((1-benzylpiperidin-4-yl)oxy)-5-chloro-2-fluoro-N-(6-fluoropyridin-2-yl)benzenesulfonamide 2,2,2-trifluoroacetate] | 6.6 | 8.17 | 2.86
Cc1cc(CN2CC[C@H](N(C)c3cc(F)c(S(=O)(=O)Nc4cscn4)cc3C)C2)ns1 [Example 121, (S)-2-fluoro-5-methyl-4-(methyl(1-((5-methylisothiazol-3-yl)methyl)pyrrolidin-3-yl)amino)-N-(thiazol-4-yl)benzenesulfonamide formate] | 1.47 | > 30 | > 30
C[C@@H]1CN(Cc2ccccc2)C[C@@H]1Nc1ccc(S(=O)(=O)Nc2nccs2)cc1Cl (relative stereo) [Example 75, 4-((cis-1-benzyl-4-methylpyrrolidin-3-yl)amino)-3-chloro-N-(thiazol-2-yl)benzenesulfonamide] | 0.661 | 4.19 | 8.99
Cc1c(N(C)[C@H]2CCN(Cc3ccccc3F)C2)cc(F)c(S(=O)(=O)Nc2cscn2)c1F [Example 236, (S)-2,6-difluoro-4-((1-(2-fluorobenzyl)pyrrolidin-3-yl)(methyl)amino)-3-methyl-N-(thiazol-4-yl)benzenesulfonamide formate] | 0.067 | 24.3 | > 30
Cc1cc(S(=O)(=O)Nc2cscn2)c(F)cc1N(C)[C@H]1CCN(Cc2nc(C3CC3)cs2)C1 [Example 134, (S)-4-((1-((4-cyclopropylthiazol-2-yl)methyl)pyrrolidin-3-yl)(methyl)amino)-2-fluoro-5-methyl-N-(thiazol-4-yl)benzenesulfonamide] | 0.412 | 12.1 | > 30
C[C@H](c1ccccc1)N1CCC(Oc2ccc(S(=O)(=O)Nc3cscn3)c(F)c2Cl)CC1 [Example 227, (R)-3-chloro-2-fluoro-4-((1-(1-phenylethyl)piperidin-4-yl)oxy)-N-(thiazol-4-yl)benzenesulfonamide formate] | 0.855 | > 30 | > 30
Cc1cc(S(=O)(=O)Nc2cscn2)c(F)cc1N(C)[C@H]1CCN(Cc2ncc(Cl)s2)C1 [Example 146, (S)-4-((1-((5-chlorothiazol-2-yl)methyl)pyrrolidin-3-yl)(methyl)amino)-2-fluoro-5-methyl-N-(thiazol-4-yl)benzenesulfonamide] | 4.4 | 9.32 | 12.1
Cc1cc(S(=O)(=O)Nc2cscn2)c(F)cc1N(C)[C@H]1CCN(Cc2csc(C3CC3)n2)C1 [Example 138, (S)-4-((1-((2-cyclopropylthiazol-4-yl)methyl)pyrrolidin-3-yl)(methyl)amino)-2-fluoro-5-methyl-N-(thiazol-4-yl)benzenesulfonamide] | 0.05 | 9.48 | 10.4

Further lines, with some results ahead:

IC50 (NaV1.6) [µM] | IC50 (NaV1.1) [µM] | SMILES | IC50 (NaV1.5) [µM]
5.2 | 27.5 | CN(c1cc(F)c(S(=O)(=O)Nc2cscn2)cc1Cl)[C@H]1CCN(Cc2cccs2)C1 [Example 215, (S)-5-chloro-2-fluoro-4-(methyl(1-(thiophen-2-ylmethyl)pyrrolidin-3-yl)amino)-N-(thiazol-4-yl)benzenesulfonamide] | > 30
11.9 | 25.7 | O=S(=O)(Nc1ncns1)c1ccc(O[C@@H]2CCN(Cc3ccccc3)C2)c(Cl)c1 [Example 96, (R)-4-(1-benzylpyrrolidin-3-yloxy)-3-chloro-N-(1,2,4-thiadiazol-5-yl)benzenesulfonamide 2,2,2-trifluoroacetate] | > 30
0.324 | > 30 | Cc1c(OC2CCN(Cc3ccccc3)CC2)ccc(S(=O)(=O)Nc2cscn2)c1F [Example 299, 4-((1-benzylpiperidin-4-yl)oxy)-2-fluoro-3-methyl-N-(thiazol-4-yl)benzenesulfonamide hydrochloride] | 26.6
3.15 | > 30 | CN(c1cc(F)c(S(=O)(=O)Nc2cscn2)cc1Cl)[C@H]1CCN(Cc2cccn2C)C1 [Example 181, (S)-5-chloro-2-fluoro-4-(methyl(1-((1-methyl-1H-pyrrol-2-yl)methyl)pyrrolidin-3-yl)amino)-N-(thiazol-4-yl)benzene-sulfonamide] | > 30
0.375 | 6.02 | Cc1c(NC2(C)CN(Cc3ccccc3)C2)cc(F)c(S(=O)(=O)Nc2cscn2)c1F [Example 233, 4-((1-benzyl-3-methylazetidin-3-yl)amino)-2,6-difluoro-3-methyl-N-(thiazol-4-yl)benzenesulfonamide 2,2,2-trifluoroacetate] | 27.3
4.85 | 26 | CN(c1cc(F)c(S(=O)(=O)Nc2cscn2)cc1Cl)[C@H]1CCN(Cc2cccc(C(C)(C)O)c2)C1 [Example 161, (S)-5-chloro-2-fluoro-4-((1-(3-(2-hydroxypropan-2-yl)benzyl)pyrrolidin-3-yl)(methyl)amino)-N-(thiazol-4-yl)benzenesulfonamide formate] | > 30
